Laboratory results as given in PubChem BioAssay AID330 (DTP/NCI, 2004).
Values joined by “and” are separate entries in the source; they are usually repeats but may differ in a detail not shown here. Identical values can stand only once. Toxic doses and inconclusive results are not listed.

Tested on: P388 leukemia ip, CD2F1 mice, survival T/C
Assay: NCI In Vivo Anticancer Drug Screen. Data for tumor model P388 Leukemia (intraperitoneal) in CD2F1 (CDF1) mice
Details: endpoint: median survival time, higher = longer survival
How it was run: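 Mice carrying the transplanted tumor received test compound or vehicle. Survival was recorded in each group, and the value is the treated-group measurement divided by that of the vehicle-treated control group.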

[1] = dose: 50.0 mg/kg/injection, schedule: Q01DX009 (ip), vehicle: Klucel (hydroxypropylcellulose) (HPC)
[2] = dose: 100.0 mg/kg/injection, schedule: Q01DX009 (ip), vehicle: Klucel (hydroxypropylcellulose) (HPC)
[3] = dose: 200.0 mg/kg/injection, schedule: Q01DX009 (ip), vehicle: Klucel (hydroxypropylcellulose) (HPC)
[4] = dose: 12.5 mg/kg/injection, schedule: Q01DX009 (ip), vehicle: distilled water + Tween-80
[5] = dose: 25.0 mg/kg/injection, schedule: Q01DX009 (ip), vehicle: saline
[6] = dose: 50.0 mg/kg/injection, schedule: Q01DX009 (ip), vehicle: saline
[7] = dose: 100.0 mg/kg/injection, schedule: Q01DX009 (ip), vehicle: saline
[8] = dose: 50.0 mg/kg/injection, schedule: Q01DX005 (ip), vehicle: saline with Tween-80
[9] = dose: 100.0 mg/kg/injection, schedule: Q01DX005 (ip), vehicle: saline with Tween-80
[10] = dose: 200.0 mg/kg/injection, schedule: Q01DX005 (ip), vehicle: saline with Tween-80
[11] = dose: 60.0 mg/kg/injection, schedule: Q01DX005 (ip), vehicle: saline with Tween-80
[12] = dose: 120.0 mg/kg/injection, schedule: Q01DX005 (ip), vehicle: saline with Tween-80
[13] = dose: 240.0 mg/kg/injection, schedule: Q01DX005 (ip), vehicle: saline with Tween-80

## COC(=O)c1cccc2c1Oc1c(cccc1C(=O)OC)S2
dose: 100.0 mg/kg/injection, schedule: Q04DX002 (ip), vehicle: Klucel (hydroxypropylcellulose) (HPC)
  T/C: 109 % of control
dose: 200.0 mg/kg/injection, schedule: Q04DX002 (ip), vehicle: Klucel (hydroxypropylcellulose) (HPC)
  T/C: 115 % of control
dose: 400.0 mg/kg/injection, schedule: Q04DX002 (ip), vehicle: Klucel (hydroxypropylcellulose) (HPC)
  T/C: 117 % of control

## CCOC(=O)c1cc(OCC)c(OCC)c(OCC)c1[N+](=O)[O-]
dose: 50.0 mg/kg/injection, schedule: Q01DX009 (ip), vehicle: saline + Tween-80 + alcohol
  T/C: 98 % of control
dose: 100.0 mg/kg/injection, schedule: Q01DX009 (ip), vehicle: saline + Tween-80 + alcohol
  T/C: 100 % of control
dose: 200.0 mg/kg/injection, schedule: Q01DX009 (ip), vehicle: saline + Tween-80 + alcohol
  T/C: 100 % of control

## CCC12Nc3ccc([N+](=O)[O-])cc3C(CC)(C1=O)C(c1ccccc1)=C2c1ccccc1 (configuration not stated)
[1]
  T/C: 113 % of control
[2]
  T/C: 110 % of control
[3]
  T/C: 112 % of control

## N#Cc1ccc(NN=NCCCl)cc1
[4]
  T/C: 114 % of control
dose: 12.5 mg/kg/injection, schedule: Q01DX009 (ip), vehicle: distilled water + alcohol
  T/C: 95 % of control
dose: 25.0 mg/kg/injection, schedule: Q01DX009 (ip), vehicle: distilled water + alcohol
  T/C: 91 % of control
dose: 50.0 mg/kg/injection, schedule: Q01DX009 (ip), vehicle: distilled water + alcohol
  T/C: 97 % of control
dose: 100.0 mg/kg/injection, schedule: Q01DX009 (ip), vehicle: distilled water + Tween-80
  T/C: 87 % of control
dose: 100.0 mg/kg/injection, schedule: Q01DX009 (ip), vehicle: distilled water + alcohol
  T/C: 88 % of control

## CC(C)(C)C1C=Nn2c(=O)n(-c3ccccc3)c(=O)n21 (configuration not stated)
dose: 25.0 mg/kg/injection, schedule: Q04DX003 (ip), vehicle: other
  T/C: 91 % of control
dose: 100.0 mg/kg/injection, schedule: Q04DX003 (ip), vehicle: other
  T/C: 94 % of control
dose: 200.0 mg/kg/injection, schedule: Q04DX003 (ip), vehicle: other
  T/C: 98 % of control
dose: 400.0 mg/kg/injection, schedule: Q04DX003 (ip), vehicle: other
  T/C: 100 % of control

## NC(=O)c1[nH]cnc1N
[5]
  T/C: 99 % of control
[6]
  T/C: 105 % of control
[7]
  T/C: 99 % of control
dose: 400.0 mg/kg/injection, schedule: Q01DX009 (ip), vehicle: saline
  T/C: 87 % of control

## NC(CSC(c1ccccc1)(c1ccccc1)c1ccccc1)C(=O)OC(c1ccccc1)c1ccccc1 (configuration not stated)
dose: 400.0 mg/kg/injection, schedule: Q04DX003 (ip), vehicle: saline with Tween-80
  T/C: 150 % of control and 154 % of control
dose: 600.0 mg/kg/injection, schedule: Q04DX003 (ip), vehicle: saline with Tween-80
  T/C: 109 % of control

## CC1(c2ccccc2)COC(=O)O/C1=N/OCc1ccccc1 (configuration not stated)
[8]
  T/C: 100 % of control
[9]
  T/C: 107 % of control
[10]
  T/C: 99 % of control

## COc1c(C)c(=O)n2c3ccccc3n(C)c2c1C#N
[11]
  T/C: 103 % of control
[12]
  T/C: 107 % of control
[13]
  T/C: 99 % of control

## Cc1ccc(S(=O)(=O)N/N=C/c2c(C)nc3n2CCS3)cc1
dose: 100.0 mg/kg/injection, schedule: Q01DX001 (ip), vehicle: Klucel (hydroxypropylcellulose) (HPC)
  T/C: 101 % of control
dose: 200.0 mg/kg/injection, schedule: Q01DX001 (ip), vehicle: Klucel (hydroxypropylcellulose) (HPC)
  T/C: 102 % of control
dose: 400.0 mg/kg/injection, schedule: Q01DX001 (ip), vehicle: Klucel (hydroxypropylcellulose) (HPC)
  T/C: 102 % of control

## BrCc1cn2ccccc2n1
[5]
  T/C: 92 % of control
[6]
  T/C: 100 % of control
[7]
  T/C: 104 % of control

## Cc1cc(C)c(C#N)c(NN)n1
dose: 6.25 mg/kg/injection, schedule: Q01DX005 (ip), vehicle: saline with Tween-80
  T/C: 99 % of control
dose: 12.5 mg/kg/injection, schedule: Q01DX005 (ip), vehicle: saline with Tween-80
  T/C: 103 % of control

## CC1(C)OCC(CO)O1 (configuration not stated)
[6]
  T/C: 106 % of control
[7]
  T/C: 114 % of control
dose: 200.0 mg/kg/injection, schedule: Q01DX009 (ip), vehicle: saline
  T/C: 111 % of control

## Cc1ccc(N(CC(=O)O)S(=O)(=O)c2ccccc2)c(C)c1Cc1cccc(Br)c1
[8]
  T/C: 101 % of control
[9]
  T/C: 104 % of control
[10]
  T/C: 101 % of control

## COc1ccc(OC)c(C(=O)c2cccc(C(=O)c3cc(OC)ccc3OC)n2)c1
[11]
  T/C: 99 % of control
[12]
  T/C: 109 % of control
[13]
  T/C: 119 % of control

## CCCCOP(=O)(OCCCC)OC(=C(F)F)C(F)(F)P(=O)(OCCCC)OCCCC
dose: 6.25 mg/kg/injection, schedule: Q01DX009 (ip), vehicle: Klucel (hydroxypropylcellulose) (HPC)
  T/C: 98 % of control
dose: 12.5 mg/kg/injection, schedule: Q01DX009 (ip), vehicle: Klucel (hydroxypropylcellulose) (HPC)
  T/C: 91 % of control
dose: 25.0 mg/kg/injection, schedule: Q01DX009 (ip), vehicle: Klucel (hydroxypropylcellulose) (HPC)
  T/C: 100 % of control

## CCN(CC)CC(C)Nc1cc(C)nc2c1ccc1c2ccc2c(NC(C)CN(CC)CC)cc(C)nc21 (configuration not stated)
[4]
  T/C: 113 % of control
dose: 25.0 mg/kg/injection, schedule: Q01DX009 (ip), vehicle: distilled water + Tween-80
  T/C: 111 % of control
dose: 50.0 mg/kg/injection, schedule: Q01DX009 (ip), vehicle: distilled water + Tween-80
  T/C: 119 % of control

## CN(C/C=C/CN(C)C(=S)Nc1ccccc1)C(=S)Nc1ccccc1
dose: 12.5 mg/kg/injection, schedule: Q01DX009 (ip), vehicle: saline
  T/C: 95 % of control
[5]
  T/C: 106 % of control
dose: 25.0 mg/kg/injection, schedule: Q01DX009 (ip), vehicle: suspension in saline
  T/C: 91 % of control
[6]
  T/C: 90 % of control
dose: 50.0 mg/kg/injection, schedule: Q01DX009 (ip), vehicle: suspension in saline
  T/C: 86 % of control and 87 % of control

## CCC[CH2][Sn]([CH2]CCC)([N]=C=S)[N]=C=S
dose: 0.78 mg/kg/injection, schedule: Q01DX009 (ip), vehicle: saline
  T/C: 108 % of control
dose: 1.56 mg/kg/injection, schedule: Q01DX009 (ip), vehicle: saline
  T/C: 100 % of control
dose: 3.12 mg/kg/injection, schedule: Q01DX009 (ip), vehicle: saline
  T/C: 100 % of control

## CCCCCCCCCCCCCCCC[n+]1ccc(C(N)=O)cc1
dose: 3.0 mg/kg/injection, schedule: Q01DX009 (ip), vehicle: saline with Tween-80
  T/C: 109 % of control
dose: 6.0 mg/kg/injection, schedule: Q01DX009 (ip), vehicle: saline with Tween-80
  T/C: 118 % of control
dose: 12.0 mg/kg/injection, schedule: Q01DX009 (ip), vehicle: saline with Tween-80
  T/C: 109 % of control

## OCCCOCCCO
dose: 50.0 mg/kg/injection, schedule: Q01DX005 (ip), vehicle: saline
  T/C: 109 % of control
dose: 100.0 mg/kg/injection, schedule: Q01DX005 (ip), vehicle: saline
  T/C: 101 % of control
dose: 200.0 mg/kg/injection, schedule: Q01DX005 (ip), vehicle: saline
  T/C: 114 % of control

## O=C1NN=C2CCCCCCCCCCC12Cl (configuration not stated)
dose: 50.0 mg/kg/injection, schedule: Q01DX009 (ip), vehicle: saline with Tween-80
  T/C: 108 % of control
dose: 100.0 mg/kg/injection, schedule: Q01DX009 (ip), vehicle: saline with Tween-80
  T/C: 106 % of control
dose: 200.0 mg/kg/injection, schedule: Q01DX009 (ip), vehicle: saline with Tween-80
  T/C: 106 % of control

## O=C(CNC(=O)OCc1ccccc1)NCC(=O)NC(Cc1c[nH]c2ccccc12)C(=O)O (configuration not stated)
dose: 50.0 mg/kg/injection, schedule: Q01DX005 (ip), vehicle: suspension in saline
  T/C: 99 % of control
dose: 100.0 mg/kg/injection, schedule: Q01DX005 (ip), vehicle: suspension in saline
  T/C: 97 % of control
dose: 200.0 mg/kg/injection, schedule: Q01DX005 (ip), vehicle: suspension in saline
  T/C: 105 % of control

## N#CC1C(=O)NC(=O)C(C#N)C1c1ccc(Cl)c(Cl)c1 (configuration not stated)
[1]
  T/C: 99 % of control
[2]
  T/C: 100 % of control
[3]
  T/C: 102 % of control

## CCOC(=O)/C=C(/Nc1cccc(OC)c1)c1ccccc1
dose: 25.0 mg/kg/injection, schedule: Q01DX009 (ip), vehicle: other
  T/C: 97 % of control
dose: 50.0 mg/kg/injection, schedule: Q01DX009 (ip), vehicle: other
  T/C: 103 % of control
dose: 100.0 mg/kg/injection, schedule: Q01DX009 (ip), vehicle: other
  T/C: 98 % of control
dose: 200.0 mg/kg/injection, schedule: Q01DX009 (ip), vehicle: other
  T/C: 91 % of control
dose: 400.0 mg/kg/injection, schedule: Q01DX009 (ip), vehicle: other
  T/C: 105 % of control
